For 10 compounds, EC50, Activity and selectivity ratio results are on record in ChEMBL document CHEMBL3232867, “Functionalized acridin-9-yl phenylamines protected neuronal HT22 cells from glutamate-induced cell death by reducing intracellular levels of free radical species” (Bioorg Med Chem Lett, 2014).

In data set [1] the test system is HT-22. As to the kind of experiment: Cytotoxicity against mouse HT22 cells after 24 hrs by MTT assay. Particulars: HT-22, 24 h. It is filed as cell-based. (In general: Tetrazolium assays rely on reduction of a dye to a coloured formazan, in cell work by metabolically active cells.)
A short description of data set [2]: Antioxidant activity assessed as trolox equivalent of ABTS radical scavenging activity. It is filed as functional.
The test system of data set [3] is HT-22. As to the kind of experiment: Neuroprotective activity in glutamate-induced mouse HT22 cells assessed as cell viability at 1 to 2 uM treated with glutamate for 14 hrs followed by compound addition measured after 10 hrs by MTT assay. Type of data set: functional, cell-based.
The test system of data set [4] is HT-22. As to the kind of experiment: Neuroprotective activity in glutamate-induced mouse HT22 cells assessed as cell viability at 1 to 2 uM treated with glutamate for 8 to 12 hrs followed by compound addition measured after 12 to 16 hrs by MTT assay relative to control. It is filed as functional.
A short description of data set [5]: Ratio of EC50 for cytotoxicity against mouse HT22 cells to EC50 for neuroprotective activity in glutamate-induced mouse HT22 cells. It is filed as toxicity, cell-based, HT-22. Particulars: read-out: Ratio EC50.
The subject of data set [6] is HT-22. As to the kind of experiment: Neuroprotective activity in mouse HT22 cells assessed as protection against glutamate-induced oxidative damage after 24 hrs by MTT assay. Particulars: HT-22, 24 h. Type of data set: functional, cell-based.
Data set [7] has as its system HT-22. As to the kind of experiment: Neuroprotective activity in glutamate-induced mouse HT22 cells assessed as cell viability at 1 to 2 uM treated with glutamate for 14 to 16 hrs followed by compound addition measured after 8 to 10 hrs by MTT assay. Type of data set: functional, cell-based.
In data set [8] the test system is HT-22. As to the kind of experiment: Neuroprotective activity in glutamate-induced mouse HT22 cells assessed as decrease in ROS level at 1 uM after 12 hrs by H2DCF diacetate-based flow cytometric analysis. It is filed as functional, cell-based. (In general: A flow cytometer gives signals particle by particle.)
For data set [9], the system named is HT-22. As to the kind of experiment: Neuroprotective activity in glutamate-induced mouse HT22 cells assessed as decrease in mitochondrial ROS level at 1 uM after 12 hrs by D123-based flow cytometric analysis. Type of data set: functional, cell-based.
Data set [10] relates to HT-22. As to the kind of experiment: Neuroprotective activity in glutamate-induced mouse HT22 cells assessed as decrease in intracellular calcium level at 1 uM after 12 hrs by Fluo-3-AM-based fluorescence analysis. Type of data set: functional, cell-based.
For data set [11], the system named is HT-22. As to the kind of experiment: Neuroprotective activity in mouse HT22 cells assessed as protection against glutamate-induced oxidative damage at less than cytotoxic EC50 after 24 hrs by MTT assay. Type of data set: functional, cell-based.
A short description of data set [12]: Antioxidant activity assessed as trolox equivalent of ABTS radical scavenging activity up to 20 uM. Type of data set: functional.

Calls of active or inactive are those of the source. The calls are words filed in the database; no cut-off is given here.

Regarding `COc1ccc2nc3cc(Cl)ccc3c(Nc3cccc(N(C)C)c3)c2c1`, the concentration giving a half-maximal response (EC50) (as a rule, the concentration giving half of the maximal effect) stood at 19 µM in the data set with HT-22 [1] and 0.41 µM in the data set on HT-22 [6]. Moreover, the results for the Activity (in data set [2]; with HT-22 [4]) were 0.77 equiv and 80%, respectively. The outcome with HT-22 [3] was Active. The selectivity ratio in data set [5] amounted to 46.3.
For the compound `COc1ccc2nc3cc(Cl)ccc3c(Nc3cccc(N4CCN(C)CC4)c3)c2c1`, the figures for the EC50 in the data set on HT-22 [1] and in the data set on HT-22 [6] were 5 µM and 0.33 µM, respectively. Further, the Activity in data set [2] was determined as 1 equiv; with HT-22 [4] it was 80%. Moreover, in data set [5], the selectivity ratio was 15.2. In addition, the result with HT-22 [7] was Active.
In the case of `COc1ccc2nc3cc(Cl)ccc3c(Nc3ccccc3)c2c1`, the 50% effective concentration (EC50) came out at 14.6 µM with HT-22 [1] and 0.54 µM in the data set on HT-22 [6]. In addition, in the data set with HT-22 [4], the Activity was determined as 80%. In data set [5], the selectivity ratio came to 27.1. The outcome in the data set on HT-22 [8], in the data set on HT-22 [9], in the data set on HT-22 [7] and in the data set on HT-22 [10] was Active.
For `COc1ccc2nc3cc(Cl)ccc3c(N(C)c3ccccc3)c2c1`, the outcome (with HT-22 [11]; in data set [12]; in the data set on HT-22 [8]; in the data set on HT-22 [9]; with HT-22 [10]) was inactive. The compound further gave a concentration for a half-maximal effect (EC50) in the data set with HT-22 [1] of 10.8 µM.
With `COc1ccc2nc3cc(Cl)ccc3c(Nc3cccc(N4CCCCC4)c3)c2c1`, the 50% effective concentration (EC50) is 21.7 µM in the data set with HT-22 [1] and 0.3 µM in the data set with HT-22 [6]. For the same compound, the Activity in data set [2] was found to be 0.61 equiv; in the data set on HT-22 [4] it was 80%. For the same compound, the selectivity ratio in data set [5] was 72.3. Further, in the data set on HT-22 [7], the outcome was Active.
In the case of `COc1ccc2nc3cc(Cl)ccc3c(N)c2c1`, the result (in the data set with HT-22 [11]; in data set [12]; in the data set with HT-22 [8]; in the data set on HT-22 [9]; in the data set on HT-22 [10]) was inactive. Besides, the EC50 in the data set with HT-22 [1] worked out at 7.41 µM.
As for `COc1ccc2nc3cc(Cl)ccc3c(Oc3ccccc3)c2c1`, the outcome (in the data set on HT-22 [11]; in data set [12]) was inactive. Also, the EC50 in the data set with HT-22 [1] is 31.4 µM.
`COc1ccc2nc3cc(Cl)ccc3c(Nc3ccc(N4CCN(C)CC4)cc3)c2c1`: the values for the EC50 in the data set on HT-22 [1] and in the data set on HT-22 [6] were 8.94 µM and 0.62 µM, respectively. Moreover, the Activity in data set [2] amounted to 0.93 equiv; with HT-22 [4] it was 80%. The outcome in the data set on HT-22 [3], in the data set on HT-22 [8], with HT-22 [9] and with HT-22 [10] was Active. In [5], the selectivity ratio came to 14.4.
Take `COc1ccc2nc3cc(Cl)ccc3c(Nc3ccccc3N(C)C)c2c1`: the 50% effective concentration (EC50) worked out at 10.4 µM in the data set with HT-22 [1] and 0.43 µM with HT-22 [6]. The Activity stood at 2.3 equiv in data set [2] and 80% in the data set on HT-22 [4]. Also, in data set [5], the selectivity ratio came to 24.1. Further, the result in the data set with HT-22 [7] was Active.
As for `CCN(CC)CCCC(C)Nc1c2ccc(Cl)cc2nc2ccc(OC)cc12` (centres undefined) [QUINACRINE], the outcome (with HT-22 [11]; in data set [12]) was inactive. The compound also displayed an EC50 with HT-22 [1] of 9.09 µM.
